# Source: patent publication US10905738B2, “Synthetic peptides, prodrugs, pharmaceutical compositions and uses” (Biozeus Desenvolvimento De Produtos Biofarmacêuticos, priority 2018, dated 2021)
# Where a SMILES comes first, the peptide text is derived from it.
# Columns and labels:
# cavernosal strips = assay: relaxation induced by electric stimuli in cavernosal strips pre-contracted with phenylephrine ex vivo; design: species or system rats of Sprague Dawley (SD) lineage; settings: peptides 10^−10 M; 10^−8 M; 10^−6 M; FIG. 3
# Description: The relaxing potential of the peptides of the present invention on the smooth muscles of cavernous strips was evaluated ex vivo using tissue isolated from rats, a model that is largely used to test drug candidates for the treatment of ED (ITALIANO, G., CALABRÒ, A., PAGANO, F. A simplified in vitro preparation of the corpus cavernosum as a tool for investigating erectile pharmacology in the rat. Pharmacological research, 30(4): 325-334. 1994; GEMALMAZ, H., WALDECK, K., CHAPMAN, T. N., TUTTLE, J. B., STEERS, W. D., ANDERSSON, K E. In vivo and in vitro investigation of the effects of sildenafil on rat cavernous smooth muscle. The Journal of Urology, 165(3): 1010-1014.2001).
# Male rats of Sprague Dawley (SD) lineage were sacrificed by guillotine; the penises were removed surgically and placed on a Petri dish containing Krebs—bicarbonate solution (NaCl 118.1 mM; KCl 4.7 mM; KH2PO4 1.0 mM; MgSO4 1.0 mM; NaHCO3 25.0 mM; CaCl2) 2.5 mM and Glucose 11.1 mM). The corpus cavernosum were dissected by removing the glans, urethra, spongeous body and dorsal vein, and then separated by cutting the fibrous septum between them. Cavernosal strips measuring 2×2×7 mm were mounted separately in a bath for isolated organs containing bicarbonate solution-Krebs (pH 7.4) at 37° C., aerated with 95% of O02 and 5% of CO2. The tissue was connected to a tension transducer and the changes in tension were continuously registered. The cavernosal strips were contracted with phenylephrine (10^−5 M) and subsequently relaxed by electrical stimulation at different frequencies (1 to 32 Hz). […] Differences in the percentage of relaxation between treatment and control were evaluated with regard to statistical significance by means of two-way variance analysis (Two-Way ANOVA) followed by Bonferroni post-test. For the comparison between the treatments and control in light of the stimulation in a single frequency, the results were evaluated by one-way analysis variance (One-Way ANOVA) followed by Bonferroni post-test. […]
# [1] = tested on: house dust mite (HDM) sensitized A/J mice; type: in vivo, Male A/J mice; settings: 10 nMol and 30 nMol per animal, 6 h after intratracheal instillation
# Description: Male A/J mice (18-20 g), were sensitized by house dust mite (HDM) to established acute allergic asthma according to the protocol of Haspelagh et al (HASPESLAGH, E., DEBEUF, N., HAMMAD, H., LAMBRECHT, B. N. Murine Models of Allergic Asthma. Methods Mol Biol, 1559:121-136. 2017). Inflammatory cell infiltrations in the bronchoalveolar lavage fluid (BALF) were analyzed by flow cytometry.
# The mice (n=5 per group) were treated with vehicle (PBS), SEQ ID NO: 19, SEQ ID NO: 24 or PnTx(19), at doses of 10 nMol and 30 nMol per animal, by intratracheal instillation, and material were collected 6 hours post-challenge.
SMILES,enhancing effect on relaxation induced by electric stimuli in strips of cavernous body contracted by phenylephrine (cavernosal strips),neutrophil accumulation in the bronchoalveolar space [1]
"CC[C@H](C)[C@H](NC(=O)[C@H](Cc1c[nH]c2ccccc12)NC(=O)[C@H](Cc1ccccc1)NC(C)=O)C(=O)N[C@@H](C)C(=O)N[C@@H](Cc1c[nH]c2ccccc12)C(=O)N[C@@H](Cc1ccc(O)cc1)C(=O)N[C@@H](CCCCN)C(=O)N[C@@H](CC(C)C)C(=O)N[C@@H](C)C(N)=O [SEQ ID NO: 19, Ac-Phe-Trp-Ile-Ala-Trp-Tyr-Lys-Leu-Ala-NH2] (Ac-FWIAWYKLA-NH2)",enhancing effect,did not induce neutrophil accumulation
"CC[C@H](C)[C@H](NC(C)=O)C(=O)N[C@@H](C)C(=O)N[C@@H](Cc1c[nH]c2ccccc12)C(=O)N[C@@H](Cc1ccc(O)cc1)C(=O)N[C@@H](CCCCN)C(N)=O [SEQ ID NO: 24, Ac-Ile-Ala-Trp-Tyr-Lys-NH2] (Ac-IAWYK-NH2)",enhancing effect,did not induce neutrophil accumulation
